How the values were obtained:
MCL1 mRNA in whole blood = MCL1 mRNA in whole blood of patients (RNA-seq, PK/PD modeling); assay type: in vivo, human; details: for Downregulation of MCL1 mRNA: C1D15
Protocol: (§1) Total RNA was extracted from blood of patients and cell lines using RNeasy Plus Mini Kit (QIAGEN, #74136) and cDNA prepared with the Maxima First Strand cDNA Synthesis Kit for RT-PCR (Thermo Fisher Scientific, K1642) according to manufacturer's instructions. The integrity of purified total RNA was evaluated using an Agilent 2100 Bioanalyzer system and RNA 6000 Nano Kit (Agilent, #5067-1511). Differential gene expression analysis was performed (Fios Genomics) from RNA-seq data (Discovery Life Sciences). MYC and MCL1 mRNA levels were measured by qPCR in vitro and in vivo, using a Taqman qPCR system (Thermo Fisher Scientific), TaqMan Fast Universal PCR Master Mix (2X) no AmpErase (#4352042) and TaqMan probes for MYC (Hs00153408_m1) and MCL1 (Hs03043899_m1). RNA-seq data were analyzed using DESeq2 ([35]).
(§2) Fifteen patients with refractory or relapsed DH-DLBCL or other MYC+ NHL were treated with enitociclib (30 mg, 21-day cycle, once weekly x3) as a 30-minute intravenous infusion on study days 1, 8, and 15 (NCT02635672). Longitudinal gene expression levels were analyzed by RNA-seq, and enitociclib plasma concentrations were measured using LC/MS-MS. The clinical study protocol was approved by the Institutional Review Board of participating institutions and complied with the Declaration of Helsinki, current Good Clinical Practice guidelines, and local laws and regulations. Written informed consent was provided by all participants prior to the initiation of any study-specific procedure.
All pharmacokinetic parameters were calculated by noncompartmental methods as described previously ([36]) using WinNonlin v5.3 (Certara LP). Pharmacokinetic/pharmacodynamic modeling was performed using SAAM II v2.3.2 (The Epsilon Group). Pooled pharmacokinetic data from all patients [n = 15 for single dose, cycle 1 day 1 (C1D1) and n = 11 for multiple doses, cycle 1 day 15 (C1D15)] were characterized using a one-compartment model with intravenous dosing. Subsequently, the pharmacokinetic/pharmacodynamic relationship of enitociclib plasma concentrations to MCL1 and MYC mRNA change was characterized using an indirect response model ([37]) on pooled biomarker data where enitociclib concentrations inhibit the formation of MCL1 or MYC mRNA as described by the following equation: […]
PD is defined as MCL1 or MYC mRNA expression level as a percentage from baseline, t (h) is the time, kin (1/h) is the formation rate of MCL1 or MYC, IC50 (µg/L) is the enitociclib concentration where there is 50% inhibition of PD, kout (h^−1) is the rate constant describing the loss of PD, and n is the hill coefficient. At homeostasis, kin = kout (PD); therefore, kout was replaced by kin/(PD)initial where (PD)initial is equal to 100%. Estimates of pharmacokinetic and pharmacodynamic parameters from pharmacokinetic/pharmacodynamic modeling of pooled data are presented as the estimate followed by CV in parentheses.
(§3) RNA-seq data generated from the analysis of two cell lines treated with the three CDK9 inhibitors was analyzed to investigate the differences in gene expression levels between various posttreatment timepoints and the pretreatment samples. Quality control assessment and exploratory data analysis by principal component analysis (PCA) were done on raw counts and on normalized count data. Normalization of RNA-seq count data was done using trimmed mean of M-values normalization and transformed with voom, resulting in log2 counts per million with associated precision weights. […] Significance values (Padj) were adjusted for multiple testing, by controlling the FDR using the Benjamini–Hochberg procedure. […] RNA-seq data generated from blood samples taken from patients before and after their first dose (C1D1) or after multiple doses, before and after their third dose (C1D15) were analyzed and normalized using the same pipeline as cell lines for comparisons.

[1] = test system: PHF23, TP53RK, ZFP36 and JUNB mRNA in blood; test: RNA-seq DEGs in blood of patients (PHF23, TP53RK, ZFP36, JUNB); assay type: in vivo, human
Protocol: as §1, §2, §3

[2] = DH-DLBCL and other MYC+ NHL, after C1D1 and C1D15

`COc1cc(F)ccc1-c1cc(Nc2cc(CS(C)(=N)=O)ccn2)ncc1F` (stereo not drawn) [enitociclib] was tested. Which “maximal downregulation of MCL1 mRNA level in blood of patients postdose” value (MCL1 mRNA in whole blood; 30 mg dose) did it give?
Its value is 55.5%.

What about the “maximal extent of MCL1 mRNA downregulation” value (MCL1 mRNA in whole blood; C1D1, 30 mg, other MYC+ NHL, range 22.5%–48.2%) of the same compound?
Its value is 44.54%.

And the “time of maximal MCL1 mRNA inhibition” value (MCL1 mRNA in whole blood; C1D1, 30 mg, patient with the transformed follicular lymphoma)?
The value was 8 hours postdose.

What about the “maximal extent of MCL1 mRNA downregulation” value (MCL1 mRNA in whole blood; C1D1, 30 mg, patients with DH-DLBCL, range 31%–52.4%) of the same compound?
Its value is 49.28%.

And the “Downregulation of MCL1 mRNA” value (MCL1 mRNA in whole blood; DH-DLBCL, range 30%–55.5%)?
Its value is 45.81%.

And the “Downregulation of MCL1 mRNA” value (MCL1 mRNA in whole blood; other MYC+ NHL, range 0%–43.1%)?
The value was 18.27%.

What about the IC50 (MCL1 mRNA in whole blood; Homo sapiens, PK/PD indirect response model, pooled patient blood data, read-out: model estimated unbound IC50 for MCL1 mRNA) of the same compound?
The IC50 was 61.2 to 69.1 nM.

What about the “PHF23 mRNA fold change from predose” value [1, 2] of the same compound?
The value was “approximately –1 fold change”.

What about the “TP53RK mRNA fold change from predose” value [1, 2] of the same compound?
The value was “–2 fold change”.

What about the “Downregulation of ZFP36 and JUNB mRNA levels” value ([1]; other MYC+ NHL (n = 3), after C1D1) of the same compound?
Its value is “approximately −2 fold change”.

What about the “Downregulation of ZFP36 and JUNB mRNA levels” value ([1]; other MYC+ NHL (n = 3), after C1D15 (decreased toward)) of the same compound?
The value was about −1.

What about the “Downregulation of ZFP36 and JUNB mRNA levels” value ([1]; patients with DH-DLBCL, after C1D1 and C1D15) of the same compound?
The value was over −2.
